Measured values as given in patent publication US10953012B2, “Heterocyclic compounds for the inhibition of pask” (BioEnergenix LLC, priority 2011, dated 2021).

target: PASK (Homo sapiens (Human), UniProt Q96RG2); assay: PAS Kinase FRET Assay; type: biochemical; conditions: TR-FRET assay; read-out: IC50 Kinase Domain
Source text: The aim of the FRET assay is to determine the inhibition potential of test compounds on targeted kinase. This assay platform provides a homogenous screening method for measuring kinase activity by quantitating the amount of phospho-substrate in solution following a kinase reaction.
In the presence of kinase and ATP, the Ulight-peptide is phosphorylated and captured by an anti-phospho-substrate antibody, which brings the Eu chelate donor and Ulight acceptor dyes into close proximity. Upon excitation at 340 nm, the Eu chelate transfers its energy to the Ulight dye, resulting in a fluorescent light emission at 665 nm
Titration of kinase at 1 mM ATP was achieved via the following protocol. After making serial three-fold dilutions of PASK (Invitrogen) in reaction buffer across the plate; 5 μl of kinase dilution and 5 μl substrate/ATP mix were added to the wells of the white Optiplate-384 (PerkinElmer). The contents of the plate were and incubated at RT for 1 h. The reaction was stopped by adding 5 μl of stop solution to each test well followed by mixing and incubation at RT for 10 minutes. 5 μl of detection mix (detection antibody diluted in detection buffer) was added; the contents of the plate were mixed and then incubated in the dark for 1 hour at RT. The signal was recorded at TR-FRET mode (665 nm/615 nm). The results were graphed to calculate the EC50.
Titration of ATP at the EC50 concentration of kinase to determine ATP Km, app. was performed using the following method. After making serial dilutions of ATP (Invitrogen), 5 μl of ATP dilution and 5 μl substrate/kinase mix were added to the wells of the white Optiplate-384 (PerkinElmer). The contents of the plate were and incubated at RT for 1 h. The reaction was stopped by adding 5 μl of stop solution to each test well followed by mixing and incubation at RT for 10 minutes. 5 μl of detection mix (detection antibody diluted in detection buffer) was added; the contents of the plate were mixed and then incubated in the dark for 1 hour at RT. The signal was recorded at TR-FRET mode (665 nm/615 nm). The results were graphed to calculate the EC50 as the ATP Km, app.
Compound screening was done via the following method. 10 mM stock solution of test compound in DMSO was prepared by dissolving test compound in DMSO at RT for 1 hour, and then sonicating at 100% output for 8 minutes. If compound is not soluble under this condition, it was diluted to 3 mM. Kinase reaction buffer was prepared containing 10 mM MgCl2, 50 mM HEPES, 1 mM EGTA, 0.01% TWEEN-20, 2 mM DTT. Serial dilutions of the test compounds were prepared at 4×final assay concentrations using Freedom EVO200® dispensing system as follows: 12×10^−5 M, 4×10^−5 M, 1.33×10^−5 M, 4.44×10^−6 M, 1.48×10^−6 M, 4.92×10^−7 M, 1.65×10^−7 M, […], 1.82×10^−8M, 6.09×10^−9, 2.03×10^−9 M. Test compounds (2.5 μl at 4× the final assay concentration) was added to wells using Freedom EVO200® dispensing system. As a positive control, 2.5 μl of positive compound was added to assay wells, and 2.5 μl of DMSO to assay wells as vehicle control. Kinase solution was prepared in reaction buffer at 2×final assay concentration. Kinase solution (5 μl) was added to each well of the assay plate. The substrate and ATP solution was prepared in kinase reaction buffer at 4×final assay concentration. The kinase reaction was started by adding 2.5 μl of substrate+ATP mix solution to each well of the assay plate. The plate is mixed on a plate shaker; then covered and allowed to react for 2 hours in the dark at 25° C. without shaking. The reaction was stopped by adding 5 μl of stop solution to each test well followed by mixing and incubation at RT for 10 minutes in the dark. 5 μl of detection mix (detection antibody diluted in detection buffer) was added; the contents of the plate were mixed and then incubated in the dark for 1 hour at RT. The signal was recorded at TR-FRET mode (665 nm/615 nm).

Sequence of PASK (Q96RG2 999-1251): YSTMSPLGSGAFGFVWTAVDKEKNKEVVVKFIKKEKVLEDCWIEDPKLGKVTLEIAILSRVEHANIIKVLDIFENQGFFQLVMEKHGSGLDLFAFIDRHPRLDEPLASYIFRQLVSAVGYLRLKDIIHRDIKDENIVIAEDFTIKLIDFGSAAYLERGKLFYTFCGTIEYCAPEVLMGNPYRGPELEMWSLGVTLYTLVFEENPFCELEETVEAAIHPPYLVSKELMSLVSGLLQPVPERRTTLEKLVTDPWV

Row | SMILES | IC50 [µM]
1 | O=c1cc(-c2ccccc2)[nH]c2c(-c3ccc(N4CCCCC4)nc3)cnn12 [Example 88, 5-Phenyl-3-(6-(piperidin-1-yl)pyridin-3-yl)pyrazolo[1,5-a]pyrimidin-7(4H)-one] | ≥ 10
2 | COc1cc(Cl)ccc1-c1cc(=O)n2ncc(-c3ccccn3)c2[nH]1 [Example 136, 5-(4-Chloro-2-methoxyphenyl)-3-(pyridin-2-yl)pyrazolo[1,5-a]pyrimidin-7(4H)-one] | ≤ 10
3 | COc1nn2c(=O)cc(-c3ccc(Cl)cc3)[nH]c2c1C#N [Example 138, 5-(4-Chlorophenyl)-2-methoxy-7-oxo-4,7-dihydropyrazolo[1,5-a]pyrimidine-3-carbonitrile] | ≤ 10
4 | N#Cc1c(O)nn2c(=O)cc(-c3ccc(Cl)cc3)[nH]c12 [Example 139, 5-(4-Chlorophenyl)-2-hydroxy-7-oxo-4,7-dihydropyrazolo[1,5-a]pyrimidine-3-carbonitrile] | ≤ 10
5 | CS(=O)(=O)c1ccc(-c2cc(=O)n3ncc(-c4ccccn4)c3[nH]2)cc1 [Example 140, 5-(4-(Methylsulfonyl)phenyl)-3-(pyridin-2-yl)pyrazolo[1,5-a]pyrimidin-7(4H)-one] | ≤ 10
6 | O=C(c1cnn2c(=O)cc(-c3ccc4c(c3)OCCO4)[nH]c12)N1CCCC1 [Example 146, 5-(2,3-Dihydrobenzo[b][1,4]dioxin-6-yl)-3-(pyrrolidine-1-carbonyl)pyrazolo[1,5-a]pyrimidin-7(4H)-one] | ≤ 10
7 | Nc1nn2c(=O)cc(-c3cc4ccccc4o3)[nH]c2c1-c1ccccn1 [Example 151, 2-Amino-5-(benzofuran-2-yl)-3-(pyridin-2-yl)pyrazolo[1,5-a]pyrimidin-7(4H)-one] | ≤ 10
8 | Nc1nn2c(=O)cc(-c3ccc(Cl)c(Cl)c3)[nH]c2c1-c1ccccn1 [Example 153, 2-Amino-5-(3,4-dichlorophenyl)-3-(pyridin-2-yl)pyrazolo[1,5-a]pyrimidin-7(4H)-one] | ≤ 10
9 | O=c1cc(-c2ccccc2)[nH]c2c(-c3cccnc3)c(O)nn12 [Example 154, 2-Hydroxy-5-phenyl-3-(pyridin-3-yl)pyrazolo[1,5-a]pyrimidin-7(4H)-one] | ≤ 10
10 | COc1nn2c(=O)cc(-c3ccc4c(c3)OCO4)[nH]c2c1-c1ccccn1 [Example 157, 5-(Benzo[d][1,3]dioxol-5-yl)-2-methoxy-3-(pyridin-2-yl)pyrazolo[1,5-a]pyrimidin-7(4H)-one] | ≤ 10
11 | O=c1cc(-c2ccc(Cl)cc2F)[nH]c2c(-c3ccccn3)cnn12 [Example 162, 5-(4-Chloro-2-fluorophenyl)-3-(pyridin-2-yl)pyrazolo[1,5-a]pyrimidin-7(4H)-one] | ≤ 10
12 | Nc1nn2c(=O)cc(-c3ccc4occc4c3)[nH]c2c1-c1ccccn1 [Example 165, 2-Amino-5-(benzofuran-5-yl)-3-(pyridin-2-yl)pyrazolo[1,5-a]pyrimidin-7(4H)-one] | ≤ 10
13 | Cc1coc2ccc(-c3cc(=O)n4nc(N)c(-c5ccccn5)c4[nH]3)cc12 [Example 166, 2-Amino-5-(3-methylbenzofuran-5-yl)-3-(pyridin-2-yl)pyrazolo[1,5-a]pyrimidin-7(4H)-one] | ≤ 10
14 | Cc1coc2ccc(-c3cc(=O)n4ncc(-c5ccccn5)c4[nH]3)cc12 [Example 167, 5-(3-Methylbenzofuran-5-yl)-3-(pyridin-2-yl)pyrazolo[1,5-a]pyrimidin-7(4H)-one] | ≤ 10
15 | Cc1coc2ccc(-c3cc(=O)n4nc(O)c(-c5ccccn5)c4[nH]3)cc12 [Example 168, 2-Hydroxy-5-(3-methylbenzofuran-5-yl)-3-(pyridin-2-yl)pyrazolo[1,5-a]pyrimidin-7(4H)-one] | ≤ 10

More lines, now with the values ahead:

Row | IC50 [µM] | SMILES
16 | ≤ 10 | Cc1nn2c(=O)cc(-c3ccc(O)cc3)[nH]c2c1-c1ccccc1 [Example 80, 5-(4-Hydroxyphenyl)-2-methyl-3-phenylpyrazolo[1,5-a]pyrimidin-7(4H)-one]
17 | ≤ 10 | COc1ccc(-c2cnn3c(=O)cc(-c4ccc5c(c4)OCCO5)[nH]c23)cc1 [Example 82, 5-(2,3-Dihydrobenzo[b][1,4]dioxin-6-yl)-3-(4-methoxyphenyl)pyrazolo[1,5-a]pyrimidin-7(4H)-one]
18 | ≤ 10 | Cc1nn2c(=O)cc(-c3ccc4ncccc4c3)[nH]c2c1-c1ccc(F)cc1 [Example 83, 3-(4-Fluorophenyl)-2-methyl-5-(quinolin-6-yl)pyrazolo[1,5-a]pyrimidin-7(4H)-one]
19 | ≤ 10 | COc1ccc(-c2c(C)nn3c(=O)cc(-c4ccc5ncccc5c4)[nH]c23)cc1 [Example 84, 3-(4-Methoxyphenyl)-2-methyl-5-(quinolin-6-yl)pyrazolo[1,5-a]pyrimidin-7(4H)-one]
20 | ≤ 10 | COc1ccc(-c2c(C)nn3c(=O)cc(-c4ccc5c(c4)OCCO5)[nH]c23)cc1 [Example 85, 5-(2,3-Dihydrobenzo[b][1,4]dioxin-6-yl)-3-(4-methoxyphenyl)-2-methylpyrazolo[1,5-a]pyrimidin-7(4H)-one]
21 | ≤ 10 | O=c1cc(-c2ccc3c(c2)OCCO3)[nH]c2c(-c3ccc(F)cc3)cnn12 [Example 86, 5-(2,3-Dihydrobenzo[b][1,4]dioxin-6-yl)-3-(4-fluorophenyl)pyrazolo[1,5-a]pyrimidin-7(4H)-one]
22 | ≤ 10 | Cc1nn2c(=O)cc(-c3ccc4[nH]ccc4c3)[nH]c2c1-c1ccccc1 [Example 87, 5-(1H-Indol-5-yl)-2-methyl-3-phenylpyrazolo[1,5-a]pyrimidin-7(4H)-one]
23 | ≤ 10 | O=c1cc(-c2ccc3c(c2)OCCO3)[nH]c2c(-c3cccc(Cl)c3)cnn12 [Example 90, 3-(3-Chlorophenyl)-5-(2,3-dihydrobenzo[b][1,4]dioxin-6-yl)pyrazolo[1,5-a]pyrimidin-7(4H)-one]
24 | ≤ 10 | O=c1cc(-c2ccc3c(c2)OCCO3)[nH]c2c(-c3ccc(Br)cc3)cnn12 [Example 104, 3-(4-Bromophenyl)-5-(2,3-dihydrobenzo[b][1,4]dioxin-6-yl)pyrazolo[1,5-a]pyrimidin-7(4H)-one]
25 | ≤ 10 | O=c1cc(-c2ccccc2)[nH]c2c(-c3ccc(O)nc3)cnn12 [Example 105, 3-(6-Hydroxypyridin-3-yl)-5-phenylpyrazolo[1,5-a]pyrimidin-7(4H)-one]
26 | ≤ 10 | COc1ccc(-c2cnn3c(=O)cc(-c4ccccc4)[nH]c23)cn1 [Example 112, 3-(6-Methoxypyridin-3-yl)-5-phenylpyrazolo[1,5-a]pyrimidin-7(4H)-one]
27 | ≤ 10 | O=C(O)c1cnn2c(=O)cc(-c3ccc4c(c3)OCCO4)[nH]c12 [Example 115, 5-(2,3-Dihydrobenzo[b][1,4]dioxin-6-yl)-7-oxo-4,7-dihydropyrazolo[1,5-a]pyrimidine-3-carboxylic acid]
28 | ≤ 10 | O=c1cc(-c2ccc3c(c2)OCCO3)[nH]c2c(-c3ccc(N4CCOCC4)nc3)cnn12 [Example 118, 5-(2,3-Dihydrobenzo[b][1,4]dioxin-6-yl)-3-(6-morpholinopyridin-3-yl)pyrazolo[1,5-a]pyrimidin-7(4H)-one]
29 | ≤ 10 | O=c1cc(-c2ccc(Cl)cc2Cl)[nH]c2c(-c3ccccn3)cnn12 [Example 124, 5-(2,4-Dichlorophenyl)-3-(pyridin-2-yl)pyrazolo[1,5-a]pyrimidin-7(4H)-one]
30 | ≤ 10 | O=c1cc(-c2ccc(Cl)cc2)[nH]c2c(Cc3ccccc3)cnn12 [Example 132, 3-benzyl-5-(4-chlorophenyl)pyrazolo[1,5-a]pyrimidin-7(411)-one]
31 | ≤ 10 | CCCc1cnn2c(=O)cc(-c3ccc4c(c3)OCO4)[nH]c12 [Example 134, 5-(Benzo[d][1,3]dioxol-5-yl)-3-propylpyrazolo[1,5-a]pyrimidin-7(4H)-one]
